Test results reported in US8044211B2 (Chroma Therapeutics Ltd., priority 2006, dated 2011).
Read-outs that look alike come from different tables or passages of the source.

Legend:
THP-1 TNFα release = assay: LPS-stimulation of THP-1 cells, TNF-α by ELISA; type: cell-based; conditions: IC50 range, LPS 1 μg/ml, 6 hrs, read-out: Inhibitor activity versus THP-1 TNFα release
Procedure: THP-1 cells were plated in 100 μl at a density of 4×10^4 cells/well in V-bottomed 96 well tissue culture treated plates and incubated at 37° C. in 5% CO2 for 16 hrs. 2 hrs after the addition of the inhibitor in […], of tissue culture media, the cells were stimulated with LPS (E. coli strain 005:B5, Sigma) at a final concentration of 1 μg/ml and incubated at 37° C. in 5% CO2 for 6 hrs. TNF-α levels were measured from cell-free supernatants by sandwich ELISA (R&D Systems #QTA00B).

p38 MAP Kinase a = target: T1, p38 MAP Kinase a (Homo sapiens, UniProt Q16539); assay: p38 MAP Kinase activity, radiometric filter-binding assay (Upstate); type: biochemical; conditions: IC50 range; ATP at or close to Km; read-out: Inhibitor activity versus p38 MAPKa
T1 construct: purchased Upstate (Dundee UK)
Procedure: The ability of compounds to inhibit p38 MAP a Kinase activity was measured in an assay performed by Upstate (Dundee UK). In a final reaction volume of 25 μL, p38 MAP Kinase a (5-10 mU) is incubated with 25 mM Tris pH 7.5, 0.002 mMEGTA, 0.33 mg/mL myelin basic protein, 10 mM MgAcetate and [g-33P-ATP] (specific activity approx. 500 cpm/pmol, concentration as required). The reaction is initiated by the addition of the MgATP mix. After incubation for 40 minutes at room temperature, the reaction is stopped by the addition of 5 μL of a 3% phosphoric acid solution. 10 μL of the reaction is then spotted onto a P30 filtermat and washed three times for 5 minutes in 75 mM phosphoric acid and once in methanol prior to drying and scintillation counting.
Duplicate data points are generated from a ⅓ log dilution series of a stock solution in DMSO. Nine dilutions steps are made from a top concentration of 10 μM, and a ‘no compound’ blank is included. The standard radiometric filter-binding assay is performed at an ATP concentration at, or close to, the Km. Data from scintillation counts are collected and subjected to free-fit analysis by Prism software. From the curve generated, the concentration giving 50% inhibition is determined and reported.

T1 sequence (Q16539 whole entry): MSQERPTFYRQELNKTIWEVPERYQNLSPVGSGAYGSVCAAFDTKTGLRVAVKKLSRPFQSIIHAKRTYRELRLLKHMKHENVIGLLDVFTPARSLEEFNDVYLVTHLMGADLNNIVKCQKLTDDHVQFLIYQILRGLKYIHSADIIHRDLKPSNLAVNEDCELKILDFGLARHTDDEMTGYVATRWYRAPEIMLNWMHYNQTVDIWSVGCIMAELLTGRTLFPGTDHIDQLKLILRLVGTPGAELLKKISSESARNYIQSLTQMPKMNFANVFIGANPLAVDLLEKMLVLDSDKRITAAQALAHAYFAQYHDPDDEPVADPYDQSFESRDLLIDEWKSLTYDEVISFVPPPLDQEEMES

Molecule: CC(C)C[C@@H](NCCCOc1cc(F)c(-n2c(N)c(C(=O)c3ccc(F)cc3F)ccc2=O)c(F)c1)C(=O)OC1CCCC1 [Example 50, Cyclopentyl N-(3-{4-[6-amino-5-(2,4-difluorobenzoyl)-2-oxopyridin-1(2H)-yl]-3,5-difluorophenoxy}propyl)-D-leucinate]
- IC50 (THP-1 TNFα release; Homo sapiens, THP-1): < 0.1 µM
- IC50 (p38 MAP Kinase a): < 0.1 µM

Molecule: Nc1c(C(=O)c2ccc(F)cc2)ccc(=O)n1-c1ccc(CCN[C@H](C(=O)OC2CCCC2)c2ccccc2)cc1 [Example 61, Cyclopentyl(2S)-{[2-(4-{6-amino-5-[(4-fluorophenyl)carbonyl]-2-oxopyridin-1(2H)-yl}phenyl)ethyl]amino}(phenyl)ethanoate]
- IC50 (THP-1 TNFα release; Homo sapiens, THP-1): < 0.1 µM
- IC50 (p38 MAP Kinase a): 0.1 to 1 µM

Molecule: Cc1cc(C(=O)c2ccc(=O)n(-c3ccc(OCCCN[C@@H](Cc4ccccc4)C(=O)OC4CCCC4)cc3)c2N)ccc1F [Example 12, Cyclopentyl(S)-2-(3-{4-[6-Amino-5-(3-methyl-4-fluorobenzoyl)-2-oxo-2H-pyridin-1-yl]phenoxy}propylamino)-3-phenyl propionate]
- IC50 (THP-1 TNFα release; Homo sapiens, THP-1): 0.1 to 1 µM
- IC50 (p38 MAP Kinase a): < 0.1 µM

Molecule: CC(C)C[C@H](NC1CCC(Oc2cc(F)c(-n3c(N)c(C(=O)c4ccc(F)cc4)ccc3=O)c(F)c2)CC1)C(=O)OC1CCCC1 (stereo partly drawn) [Example 33, Cyclopentyl(S)-2-(4-{4-[6-Amino-5-(4-fluorobenzoyl)-2-oxo-2H-pyridin-1-yl]-3,5-difluorophenoxy}cyclohexylamino)-4-methylpentanoate]
- IC50 (THP-1 TNFα release; Homo sapiens, THP-1): < 0.1 µM
- IC50 (p38 MAP Kinase a): < 0.1 µM

Molecule: Nc1c(C(=O)c2ccc(F)cc2)ccc(=O)n1-c1ccc(OCCCN[C@H](C(=O)OC2CCCC2)c2ccccc2)cc1 [Example 23, Cyclopentyl(S)-(3-{4-[6-Amino-5-(4-fluorobenzoyl)-2-oxo-2H-pyridin-1-yl]-phenoxy}propylamino)phenylacetate]
- IC50 (THP-1 TNFα release; Homo sapiens, THP-1): 0.1 to 1 µM
- IC50 (p38 MAP Kinase a): < 0.1 µM

Molecule: CC(C)C[C@H](NCCCCCOc1cc(F)c(-n2c(N)c(C(=O)c3ccc(F)cc3)ccc2=O)c(F)c1)C(=O)OC1CCCC1 [Example 55, Cyclopentyl N-(5-{4-[6-amino-5-(4-fluorobenzoyl)-2-oxopyridin-1(2H)-yl]-3,5-difluorophenoxy}pentyl)-L-leucinate]
- IC50 (THP-1 TNFα release; Homo sapiens, THP-1): < 0.1 µM
- IC50 (p38 MAP Kinase a): 0.1 to 1 µM

Molecule: Cc1cc(C(=O)c2ccc(=O)n(-c3ccc(CN[C@@H](CC(C)C)C(=O)OC4CCCC4)cc3)c2N)ccc1F [Example 6, Cyclopentyl(S)-2-{4-[6-Amino-5-(3-Methyl-4-fluorobenzoyl)-2-oxo-2H-pyridin-1-yl]benzylamino}-4-methylpentanoate]
- IC50 (THP-1 TNFα release; Homo sapiens, THP-1): > 1 µM
- IC50 (p38 MAP Kinase a): 0.1 to 1 µM

Molecule: Nc1c(C(=O)c2ccc(F)cc2)ccc(=O)n1C1CCC(N[C@@H](Cc2ccccc2)C(=O)OC2CCCC2)CC1 (single isomer, unassigned) [Example 34]
- IC50 (THP-1 TNFα release; Homo sapiens, THP-1): > 1 µM
- IC50 (p38 MAP Kinase a): 0.1 to 1 µM

Molecule: Nc1c(C(=O)c2ccc(F)cc2)ccc(=O)n1-c1c(F)cc(OCCCN[C@H](C(=O)OC2CCCC2)c2ccccc2)cc1F [Example 13, Cyclopentyl(S)-(3-{4-[6-Amino-5-(4-fluorobenzoyl)-2-oxo-2H-pyridin-1-yl]-3,5-difluorophenoxy}propylamino)phenylacetate]
- IC50 (THP-1 TNFα release; Homo sapiens, THP-1): < 0.1 µM
- IC50 (p38 MAP Kinase a): < 0.1 µM

Molecule: Nc1c(C(=O)c2ccc(F)cc2F)ccc(=O)n1-c1c(F)cc(OCCCN[C@@H](C(=O)OC2CC3CCC2C3)c2ccccc2)cc1F (stereo partly drawn) [Example 44, Bicyclo[2.2.1]hept-2-yl (2R)-[(3-{4-[6-amino-5-(2,4-difluorobenzoyl)-2-oxopyridin-1(2H)-yl]-3,5-difluorophenoxy}propyl)amino](phenyl)acetate]
- IC50 (THP-1 TNFα release; Homo sapiens, THP-1): < 0.1 µM
- IC50 (p38 MAP Kinase a): 0.1 to 1 µM

Molecule: Nc1c(C(=O)c2ccc(F)cc2)ccc(=O)n1-c1c(F)cc(OCCCN[C@@H](Cc2ccccc2)C(=O)OC2CCCC2)cc1F [Example 14]
- IC50 (THP-1 TNFα release; Homo sapiens, THP-1): < 0.1 µM
- IC50 (p38 MAP Kinase a): < 0.1 µM

Molecule: COc1ccc(C(=O)c2ccc(=O)n(-c3ccc(CCN[C@@H](CC(C)C)C(=O)OC4CCCC4)cc3)c2N)cc1 [Example 64, Cyclopentyl N-[2-(4-{6-amino-5-[(4-methoxyphenyl)carbonyl]-2-oxopyridin-1(2H)-yl}phenyl)ethyl]-L-leucinate]
- IC50 (THP-1 TNFα release; Homo sapiens, THP-1): 0.1 to 1 µM
- IC50 (p38 MAP Kinase a): > 1 µM

Molecule: CC(C)(C)OC(=O)[C@@H](NCCc1ccc(-n2c(N)c(C(=O)c3ccc(F)cc3)ccc2=O)cc1)c1ccccc1 [Example 62, tert-Butyl (2S)-{[2-(4-{6-amino-5-[(4-fluorophenyl)carbonyl]-2-oxopyridin-1(2H)-yl}phenyl)ethyl]amino}(phenyl)ethanoate]
- IC50 (THP-1 TNFα release; Homo sapiens, THP-1): 0.1 to 1 µM
- IC50 (p38 MAP Kinase a): 0.1 to 1 µM

Molecule: CC(C)C[C@H](NCCCOc1ccc(-n2c(N)c(C(=O)c3ccc(F)cc3F)ccc2=O)cc1)C(=O)OC(C)(C)C [Example 39, tert-Butyl(S)-2-(3-{4-[6-Amino-5-(2,4-difluorobenzoyl)-2-oxo-2H-pyridin-1-yl]phenoxy}propylamino)-4-methyl pentanoate]
- IC50 (THP-1 TNFα release; Homo sapiens, THP-1): 0.1 to 1 µM
- IC50 (p38 MAP Kinase a): < 0.1 µM

Molecule: Nc1c(C(=O)c2ccc(F)cc2F)ccc(=O)n1-c1ccc(CN[C@H](C(=O)OC2CCCC2)c2ccccc2)cc1 [Example 7, Cyclopentyl(S)-{4-[6-Amino-5-(2,4-difluorobenzoyl)-2-oxo-2H-pyridin-1-yl]benzylamino}phenylacetate]
- IC50 (THP-1 TNFα release; Homo sapiens, THP-1): > 1 µM
- IC50 (p38 MAP Kinase a): < 0.1 µM

Molecule: CC(C)C[C@@H](NCCCOc1cc(F)c(-n2c(N)c(C(=O)c3ccc(F)cc3F)ccc2=O)c(F)c1)C(=O)OC(C)(C)C [Example 51, tert-Butyl N-(3-{4-[6-amino-5-(2,4-difluorobenzoyl)-2-oxopyridin-1(2H)-yl]-3,5-difluorophenoxy}propyl)-D-leucinate]
- IC50 (THP-1 TNFα release; Homo sapiens, THP-1): < 0.1 µM
- IC50 (p38 MAP Kinase a): < 0.1 µM

Molecule: Cc1cc(C(=O)c2ccc(=O)n(-c3c(F)cc(OCCCN[C@H](C(=O)OC4CCCC4)c4ccccc4)cc3F)c2N)ccc1F [Example 17, Cyclopentyl(S)-(3-{4-[6-Amino-5-(4-fluoro-3-methylbenzoyl)-2-oxo-2H-pyridin-1-yl]-3,5-difluorophenoxy}propylamino) phenylacetate]
- IC50 (THP-1 TNFα release; Homo sapiens, THP-1): < 0.1 µM
- IC50 (p38 MAP Kinase a): < 0.1 µM

Molecule: Cc1cc(C(=O)c2ccc(=O)n(-c3ccc(CN[C@H](C(=O)OC4CCCC4)c4ccccc4)cc3)c2N)ccc1F [Example 4, Cyclopentyl(S)-{4-[6-Amino-5-(3-methyl-4-fluorobenzoyl)-2-oxo-2H-pyridin-1-yl]benzylamino}phenylacetate]
- IC50 (THP-1 TNFα release; Homo sapiens, THP-1): > 1 µM
- IC50 (p38 MAP Kinase a): 0.1 to 1 µM

Molecule: tert-Butyl(S)-(3-{4-[6-Amino-5-(4-difluoro benzoyl)-2-oxo-2H-pyridin-1-yl]-3,5-difluorophenoxy}propylamino)phenyl acetate [Example 45]
- IC50 (THP-1 TNFα release): < 0.1 µM
- IC50 (p38 MAP Kinase a): < 0.1 µM

Molecule: Cc1cc(C(=O)c2ccc(=O)n(-c3c(F)cc(OCCCN[C@@H](Cc4ccccc4)C(=O)OC4CCCC4)cc3F)c2N)ccc1F [Example 18, Cyclopentyl(S)-2-(3-{4-[6-Amino-5-(4-fluoro-3-methylbenzoyl)-2-oxo-2H-pyridin-1-yl]-3,5-difluorophenoxy}propylamino)-3-phenylpropionate]
- IC50 (THP-1 TNFα release; Homo sapiens, THP-1): < 0.1 µM
- IC50 (p38 MAP Kinase a): < 0.1 µM

Molecule: Nc1c(C(=O)c2ccc(F)cc2F)ccc(=O)n1-c1ccc(CN[C@@H](Cc2ccccc2)C(=O)OC2CCCC2)cc1 [Example 8, Cyclopentyl(S)-2-{4-[6-Amino-5-(2,4-difluorobenzoyl)-2-oxo-2H-pyridin-1-yl]benzylamino}-3-phenylpropionate]
- IC50 (THP-1 TNFα release; Homo sapiens, THP-1): 0.1 to 1 µM
- IC50 (p38 MAP Kinase a): < 0.1 µM
